The source of these data is patent US7312248B2, “Control of parasites in animals by the use of novel trifluoromethanesulfonanilide oxime ether derivatives” (Schering-Plough Animal Health Corporation, priority 2004, dated 2007).

Read-outs that look alike come from different tables or passages of the source.

This data set concerns cat flea (Ctenocephalides felis). The data set can be described thus: whole plant or invertebrate. Format: in vivo. As to conditions: for mortality at 1.26 µg/cm2 / mortality at 1.26 µg/cm2, 1.26 µg/cm2: Ctenocephalides felis. As to the method: b) Ctenocephalides felis Adulticide Assay: C. felis Single Dose Screen
Mortality of fleas was the primary endpoint in the assay. Fleas were considered dead if they didn't move or were on their sides and unable to walk or right themselves. […] The concentration chosen (1.26 μg/cm^2) was higher than that known to kill 90% of cat fleas (LC90) using the reference compound, permethrin.
The test species was the cat flea (Ctenocephalides felis). The strain used was obtained from external suppliers as pupae and held in the laboratory under testing conditions until the adults had emerged. Fifteen (15) fleas were used in a minimum of four replicates against a single concentration level (approximately 60 fleas). The insects were selected to be in the adult life stage, aged between 3 and 7 days post emergence.
The compounds to be tested were supplied as solids and were prepared in acetone as described below prior to testing. Samples were stored in a refrigerator (5±1° C.) unless otherwise specified.
During the mortality testing, the temperature was maintained at 25±1° C. Humidity was maintained at 75±5%. The base (area=159 mm^2) of a 100 mL glass Erlenmeyer (conical) flask provided the treatment surface. Flasks were pretreated with Coatasil™ glass treatment to maximise bio-availability of test compounds by preventing them from binding to glass the surface. The base of the 100 mL Erlenmeyer flask was treated with 0.5 mL of test sample in acetone and gently swirled. This volume was sufficient to cover the base of the flask. Flasks were left to dry for 24 hours before flea exposure.
Adult cat fleas were placed into a sorting chamber, which allowed fleas to jump into the Erlenmeyer flasks. Fifteen (15) adult cat fleas were collected in each flask. The top of the flasks were then covered in Parafilm™ and small holes were made to allow gas exchange. A 0.5 mL volume of acetone as a solvent control was applied to the base of an Erlenmeyer flask and the testing proceeded in the same manner described above. Cat fleas in the treatment containers were held under testing conditions for 8, 24 and/or 48 hours. Mortality was recorded at 8, 24, 8 and 24, or 24 and 48 hours. Pooled 8, 24, 8 and 24, and 24 and 48 hour mortality data were converted to percentages and are summarized by Tables 14, 14A and 14B, below.

Setting [1] is: 24 h, read-out: Ctenocephalides felis Mortality (%) 24 h.
Where [2] appears, read: 48 h, read-out: Ctenocephalides felis Mortality (%) 48 h.
Where [3] appears, read: 8 h, read-out: C. felis Mortality (%) 8 h, 8 h, Laboratory 2 B data.
Where [4] appears, read: 24 h, read-out: C. felis Mortality (%) 24 h, 24 h, Laboratory 2 B data.
Setting [5] is: 24 h, read-out: C. felis Mortality (%) 24 h, 24 h, Laboratory 1 A data.
The mark [6] stands for this setting: 48 h, read-out: C. felis Mortality (%) 48 h, 48 h, Laboratory 2 B data.
Setting [7] is: 8 h, read-out: Ctenocephalides felis Mortality (%) 8 h.

Take `CC/C(=N\OCc1ccc(Cl)cc1)c1cc(Cl)ccc1N(C)S(=O)(=O)C(F)(F)F` [Compound 297]: the mortality at 1.26 µg/cm2 under setting [1] is 1% and the mortality at 1.26 µg/cm2 under setting [2] was determined as 28%. With `CC/C(=N\OC(C)c1ccc(Cl)cc1Cl)c1cc(Cl)ccc1NS(=O)(=O)C(F)(F)F` (centres unmarked) [Compound 259], the mortality at 1.26 µg/cm2, 1.26 µg/cm2 runs as follows: under setting [3], 0%; under setting [4], 71%. As for `C/C(=N\OCc1ccccn1)c1cc(Cl)ccc1NS(=O)(=O)C(F)(F)F` [Compound 48], under setting [5], the mortality at 1.26 µg/cm2, 1.26 µg/cm2 stood at 94%. Regarding `CO/N=C(\c1ccccc1)c1cc(Cl)ccc1NS(=O)(=O)C(F)(F)F` [Compound 232], the “C. felis Mortality (%) 24 h” value (24 h, Laboratory 2 B data) is listed as 96^B %. Besides, under setting [6], the mortality at 1.26 µg/cm2, 1.26 µg/cm2 was 100%.

For the compound `CCO/N=C(\C)c1cc(Cl)ccc1NS(=O)(=O)C(F)(F)F` [Compound 36], under setting [5], the mortality at 1.26 µg/cm2, 1.26 µg/cm2 is 100%. As to `CC/C(=N\OC(CC)c1ccccc1)c1cc(Cl)ccc1NS(=O)(=O)C(F)(F)F` (centres unmarked) [Compound 256], the mortality at 1.26 µg/cm2, 1.26 µg/cm2 reads like this: under setting [3], 0%; under setting [4], 84%. Take `CC/C(=N\Oc1ccccc1C)c1cc(Cl)ccc1NS(=O)(=O)C(F)(F)F` [Compound 150]: under setting [5], the mortality at 1.26 µg/cm2, 1.26 µg/cm2 came to 48%. Regarding `CCCO/N=C(\c1ccccc1)c1cc(Cl)ccc1NS(=O)(=O)C(F)(F)F` [Compound 251], the “C. felis Mortality (%) 24 h” value (24 h, Laboratory 2 B data) is 32^B %. Moreover, the mortality at 1.26 µg/cm2, 1.26 µg/cm2 under setting [6] is 100%.

Turning to `CSCO/N=C(\C)c1ccccc1NS(=O)(=O)C(F)(F)F` [Compound 56], the mortality at 1.26 µg/cm2, 1.26 µg/cm2 under setting [5] was 100%. As for `CCO/N=C(\C)c1cccc(OC)c1NS(=O)(=O)C(F)(F)F` [Compound 41], the mortality at 1.26 µg/cm2, 1.26 µg/cm2 under setting [5] was determined as 45%. With `C/C(=N\OCC=C(Cl)Cl)c1ccccc1NS(=O)(=O)C(F)(F)F` [Compound 25], the mortality at 1.26 µg/cm2, 1.26 µg/cm2 under setting [5] is 100%. Same read-out and setting: in the case of `CC/C(=N\OC)c1cc(Cl)ccc1NS(=O)(=O)C(F)(F)F` [Compound 34] it was 100%. For the compound `CCCC(=O)OCN(c1ccc(Cl)cc1/C(CC)=N/Oc1ccc(Cl)cc1)S(=O)(=O)C(F)(F)F` [Compound 309], the mortality at 1.26 µg/cm2 by setting is: under setting [7], 3%; under setting [1], 86%. As for `CSCO/N=C(\C)c1cccc(C)c1NS(=O)(=O)C(F)(F)F` [Compound 54], the mortality at 1.26 µg/cm2, 1.26 µg/cm2 under setting [5] turned out to be 93%. Regarding `C/C(=N\OCCC(C)C)c1cc(Cl)ccc1NS(=O)(=O)C(F)(F)F` [Compound 246], the mortality at 1.26 µg/cm2, 1.26 µg/cm2 is, setting by setting: under setting [4], 98%; under setting [6], 100%. In the same order, the values of `C/C(=N\OC1CCCC1)c1ccc(C(F)(F)F)cc1NS(=O)(=O)C(F)(F)F` [Compound 239] are 86% and 100%. With `CO/N=C(\C)c1cc(Br)ccc1NS(=O)(=O)C(F)(F)F` [Compound 52], the mortality at 1.26 µg/cm2, 1.26 µg/cm2 under setting [5] worked out at 100%.

With `C/C(=N\OC1CCCCC1)c1ccc(C(F)(F)F)cc1NS(=O)(=O)C(F)(F)F` [Compound 237], the mortality at 1.26 µg/cm2, 1.26 µg/cm2 was 4% under setting [4] and 36% under setting [6]. For the compound `CCO/N=C(\C)c1cc(Br)ccc1NS(=O)(=O)C(F)(F)F` [Compound 53], the mortality at 1.26 µg/cm2, 1.26 µg/cm2 under setting [5] amounted to 100%. Regarding `CCC/C(=N\Oc1ccc(F)cc1)c1cc(Cl)ccc1NS(=O)(=O)C(F)(F)F` [Compound 168], the mortality at 1.26 µg/cm2, 1.26 µg/cm2 under setting [5] is 36%. The same measure, in the same setting: in the case of `C/C(=N\Oc1ccc(F)c(F)c1)c1cc(Cl)ccc1NS(=O)(=O)C(F)(F)F` [Compound 147] it was 4%.

For the compound `CO/N=C(\c1ccccc1)c1ccccc1NS(=O)(=O)C(F)(F)F` [Compound 30], the mortality at 1.26 µg/cm2, 1.26 µg/cm2 under setting [5] came out at 62%. `C/C(=N\OC(C)C)c1cccc(C)c1NS(=O)(=O)C(F)(F)F` [Compound 57]: the mortality at 1.26 µg/cm2, 1.26 µg/cm2 under setting [5] was found to be 77%.

For `O=S(=O)(Nc1ccc(Cl)cc1-c1noc2c1CCCC2)C(F)(F)F` [Compound 294], the mortality at 1.26 µg/cm2 by setting is: under setting [7], 3%; under setting [1], 40%.

For `CO/N=C(\C)c1cc2c(cc1NS(=O)(=O)C(F)(F)F)OCO2` [Compound 32], under setting [5], the mortality at 1.26 µg/cm2, 1.26 µg/cm2 turned out to be 100%. In the case of `CO/N=C(\c1ccccc1)c1cc(Cl)ccc1NS(=O)(=O)C(F)(F)F` [Compound 233], the “C. felis Mortality (%) 24 h” value (24 h, Laboratory 2 B data) was 15^B %. The “C. felis Mortality (%) 48 h” value (48 h, Laboratory 2 B data) turned out to be 96%.

For the compound `CC/C(=N\Oc1ccc(F)c(F)c1)c1cc(Cl)ccc1NS(=O)(=O)C(F)(F)F` [Compound 148], the mortality at 1.26 µg/cm2, 1.26 µg/cm2 under setting [5] turned out to be 38%. Turning to `COCCON=C(c1ccccc1)c1cc(Cl)ccc1NS(=O)(=O)C(F)(F)F` (racemic) [Compound 234, N-{4-chloro-[(2-methoxyethoxyimino)phenylmethyl]phenyl}trifluoromethanesulfonamide], the mortality at 1.26 µg/cm2, 1.26 µg/cm2 under setting [4] stood at 64% and the mortality at 1.26 µg/cm2, 1.26 µg/cm2 under setting [6] worked out at 100%. For the compound `CCOCN(c1ccc(Cl)cc1/C(CC)=N/OCC1CCCCC1)S(=O)(=O)C(F)(F)F` [Compound 301], the mortality at 1.26 µg/cm2 is, setting by setting: under setting [1], 1%; under setting [2], 19%. For `CCO/N=C(\C)c1ccc(F)cc1NS(=O)(=O)C(F)(F)F` [Compound 51], the mortality at 1.26 µg/cm2, 1.26 µg/cm2 under setting [5] amounted to 100%. As for `C/C(=N\Oc1ccccc1C)c1cc(Cl)ccc1NS(=O)(=O)C(F)(F)F` [Compound 149], under setting [5], the mortality at 1.26 µg/cm2, 1.26 µg/cm2 amounted to 17%.

For `CCOC(=O)N(c1ccc(Cl)cc1/C(CC)=N/OCc1ccc(Cl)cc1)S(=O)(=O)C(F)(F)F` [Compound 306], the mortality at 1.26 µg/cm2 is, setting by setting: (24 h, single concentration 1.26 μg/cm^2 on treated glass, adult fleas, Laboratory 2 B data, read-out: Ctenocephalides felis Mortality (%) 24 h) 0%; (48 h, single concentration 1.26 μg/cm^2 on treated glass, adult fleas, Laboratory 2 B data, read-out: Ctenocephalides felis Mortality (%) 48 h) 48%. On to `C/C(=N\OCc1ccc(Cl)cc1)c1cc(Cl)ccc1N(C)S(=O)(=O)C(F)(F)F` [Compound 296], for which the mortality at 1.26 µg/cm2 under setting [1] worked out at 0% and the mortality at 1.26 µg/cm2 under setting [2] was determined as 19%.

As to `CCCc1conc1-c1cc(Cl)ccc1NS(=O)(=O)C(F)(F)F` [Compound 295], the mortality at 1.26 µg/cm2 was determined as 0% under setting [7] and 44% under setting [1].

On to `C/C(=N\OCC#N)c1cc(Cl)ccc1NS(=O)(=O)C(F)(F)F` [Compound 160], for which the mortality at 1.26 µg/cm2, 1.26 µg/cm2 under setting [5] was 42%.

With `CCC(CC)O/N=C(\C)c1ccc(C(F)(F)F)cc1NS(=O)(=O)C(F)(F)F` [Compound 236], the mortality at 1.26 µg/cm2, 1.26 µg/cm2 is, setting by setting: under setting [4], 69%; under setting [6], 100%. On to `C/C(=N\Oc1ccc(F)cc1)c1cc(Cl)ccc1N(COC(=O)C(C)(C)C)S(=O)(=O)C(F)(F)F` [Compound 305], for which the mortality at 1.26 µg/cm2 is, setting by setting: under setting [1], 1%; under setting [2], 21%.

Turning to `CC/C(=N\Oc1ccc(C)cc1)c1cc(Cl)ccc1NS(=O)(=O)C(F)(F)F` [Compound 142], the mortality at 1.26 µg/cm2, 1.26 µg/cm2 under setting [5] was found to be 72%. On the same count and under the same terms, in the case of `C/C(=N\OCC#N)c1ccccc1NS(=O)(=O)C(F)(F)F` [Compound 27] it was 95%; in that of `CC(C)O/N=C(\c1ccccc1)c1cc(Cl)ccc1NS(=O)(=O)C(F)(F)F` [Compound 176], 52%.

As for `C/C(=N\Oc1ccc(F)c(Cl)c1)c1cc(Cl)ccc1NS(=O)(=O)C(F)(F)F` [Compound 144], the mortality at 1.26 µg/cm2, 1.26 µg/cm2 under setting [5] came out at 15%.

For `CCCC(=O)OCN(c1ccc(Cl)cc1/C(C)=N/Oc1ccc(F)cc1)S(=O)(=O)C(F)(F)F` [Compound 312], the mortality at 1.26 µg/cm2 runs as follows: under setting [7], 11%; under setting [1], 89%. With `O=S(=O)(Nc1ccc(Cl)cc1/C(=N/Oc1ccc(F)cc1)c1ccccc1)C(F)(F)F` [Compound 165, N-{4-chloro-2-[(4-fluorophenoxyimino)phenylmethyl]phenyl}trifluoromethanesulfonamide], under setting [5], the mortality at 1.26 µg/cm2, 1.26 µg/cm2 turned out to be 21%. With `CC/C(=N\OCC=C(C)C)c1cc(Cl)ccc1NS(=O)(=O)C(F)(F)F` [Compound 250], the mortality at 1.26 µg/cm2, 1.26 µg/cm2 reads like this: under setting [4], 97%; under setting [6], 100%. Take `O=S(=O)(Nc1ccc(Cl)cc1/C(=N/Oc1ccc(Cl)cc1)C1CCCCC1)C(F)(F)F` [Compound 167]: the mortality at 1.26 µg/cm2, 1.26 µg/cm2 under setting [5] stood at 3%. As to `CCOCN(c1ccc(Cl)cc1/C(C)=N/Oc1ccc(F)cc1)S(=O)(=O)C(F)(F)F` [Compound 299], the mortality at 1.26 µg/cm2 under setting [1] is 0% and the mortality at 1.26 µg/cm2 under setting [2] worked out at 56%. As for `CCC(C)O/N=C(\C)c1cccc(C)c1NS(=O)(=O)C(F)(F)F` (centres unmarked) [Compound 58], under setting [5], the mortality at 1.26 µg/cm2, 1.26 µg/cm2 was 25%.

Broadly, the mortality is the percentage killed.
